Values quoted from earlier work as cited in paper PMC12333940, “A prometabolite strategy inhibits cardiometabolic disease in an ApoE^–/– murine model of atherosclerosis” (JCI Insight, 2025).

Parameters: method as in printed
Conditions: oral administration of exogenous butyrate; background statement, ref not given; cited from earlier work

## CCCC(=O)O [butyrate, Butyrate]
  absorption into circulation, plasma concentration: 3 to 4 mM
